Test results published in US20220017486A1, “DOCK1-INHIBITING COMPOUND AND USE THEREOF” (KYUSHU UNIVERSITY, NATIONAL UNIVERSITY CORPORATION, priority 2018, published 2022).

Tests used:
DOCK1 (DHR-2 domain) = target: T1, DOCK1 (DHR-2 domain) (Homo sapiens, UniProt Q14185); test: In vitro GEF assay: Rac activation by DOCK1 DHR-2 domain; assay type: biochemical, mice and humans; conditions: in words
T1 construct: polypeptide fragments corresponding to the DHR-2 domain of DOCK1 or DOCK2 from mice and humans; Histidine-SUMO (N); made in house; host or cells: E. coli Arctic express (DE3)
T1 sequence (Q14185 1207-1617 limits assumed): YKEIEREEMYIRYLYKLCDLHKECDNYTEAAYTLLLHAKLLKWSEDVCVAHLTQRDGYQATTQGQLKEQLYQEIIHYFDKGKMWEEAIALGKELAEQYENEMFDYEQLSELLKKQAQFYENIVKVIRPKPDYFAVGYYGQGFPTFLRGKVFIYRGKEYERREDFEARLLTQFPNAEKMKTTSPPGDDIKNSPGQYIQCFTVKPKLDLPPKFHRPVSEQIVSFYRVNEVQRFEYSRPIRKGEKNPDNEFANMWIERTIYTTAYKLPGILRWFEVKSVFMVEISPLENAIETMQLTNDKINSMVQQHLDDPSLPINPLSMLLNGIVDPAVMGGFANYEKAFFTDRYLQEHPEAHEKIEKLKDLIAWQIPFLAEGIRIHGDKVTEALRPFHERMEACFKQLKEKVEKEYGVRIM
Summary of the method: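 Human/mouse His-SUMO DHR-2 fragment preincubated 20 min at RT with compound (1% DMSO) in MES buffer pH 7.0 with 20 μM GDP, then added to GDP-loaded GST-Rac (15 μM) plus 3.6 μM Bodipy-FL-GTP at 30° C. Initial velocity (0–10 s fluorescence slope, ex 488/em 514 nm) vs DMSO control gave IC50.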

[1] = test system: T cells (mouse spleen cells); test: Viability of lymphocytes (propidium iodide, flow cytometry); assay type: cell-based; conditions: in words, 1-hour culture
Protocol: Specifically, 1×10^6 mouse spleen cells were suspended in 100 μL of RPMI-1640 medium containing 0.5% BSA, and DMSO in which a predetermined concentration of each test compound was dissolved or DMSO alone was added thereto to a final DMSO concentration of 0.2%. After 1-hour culture at 37° C., 2 μL of a propidium iodide staining solution (BD Pharmingen) was added and incubated on ice for 30 minutes, followed by flow cytometry analysis. The percentage of the viable cells under each condition was calculated, considering negative cells to be viable cells.

COC(=O)c1cc(S(=O)(=O)N2CCCC2)cn1CC(=O)c1ccc(-c2cccc(C(F)(F)F)c2)cc1 [RT-22, methyl 1-(2-oxo-2-(3′-(trifluoromethyl)-[1,1′-biphenyl]-4-yl)ethyl)-4-(pyrrolidin-1-yl-sulfonyl)-1H-pyrrole-2-carboxylate]
DOCK1-inhibiting activity compared with TBOPP (DOCK1 (DHR-2 domain); GEF assay): higher than those of TBOPP | selective inhibitory activity against DOCK1 compared to TBOPP (DOCK1 (DHR-2 domain); GEF assay): higher than those of TBOPP | selective inhibitory activity against DOCK1 versus DOCK2 (DOCK1 (DHR-2 domain); GEF assay DOCK1 vs DOCK2 DHR-2 domain): higher selective inhibitory activity against DOCK1 than against DOCK2 | viability of T cells [1]: no effect
